The source of these data is publication PMC6272981, “A Selective Cyclic Peptidic Human SIRT5 Inhibitor” (Molecules, 2016).

Values joined by “and” are separate entries in the source; they are usually repeats but may differ in a detail not shown here. Equal entries are not always repeated. *1 amine or outer side, *2 acyl side, *3 side chain or, on linkers, in order; H or OH if unused. Where a SMILES comes first, the peptide text is derived from it. Bridges are numbered along the chain shown (N, C = ends). [ ]: non-standard residue; d: D form. Suberoyl(Gly)2 = O=C(CCCCCCC(=O)NCC(=O)[*:2])NCC(=O)[*:1]; X1 = O=C(O)CCNC(=S)NCCCC[C@H](N[*:1])C(=O)[*:2]; Suberoyl = O=C(CCCCCCC(=O)[*:2])[*:1] A value given as a limit tells only on which side of the number the result lay.

What is called IC50 is the concentration needed to halve the response being measured.

The subject of one test is SIRT5. To be noted: SIRT5 desuccinylation assay; cited from earlier work.
The test system of the next test is SIRT1. To be noted: cited from earlier work.
For a further test, the system named is SIRT2. To be noted: cited from earlier work.
A further test concerns SIRT3. The conditions noted are these: cited from earlier work.
Test [1] addresses T1, human recombinant GST-SIRT5 (Homo sapiens, UniProt Q9NXA8).
T1 construct: purchased Cayman Chemical (Ann Arbor, Michigan, USA)
T1 sequence (Q9NXA8 37-310): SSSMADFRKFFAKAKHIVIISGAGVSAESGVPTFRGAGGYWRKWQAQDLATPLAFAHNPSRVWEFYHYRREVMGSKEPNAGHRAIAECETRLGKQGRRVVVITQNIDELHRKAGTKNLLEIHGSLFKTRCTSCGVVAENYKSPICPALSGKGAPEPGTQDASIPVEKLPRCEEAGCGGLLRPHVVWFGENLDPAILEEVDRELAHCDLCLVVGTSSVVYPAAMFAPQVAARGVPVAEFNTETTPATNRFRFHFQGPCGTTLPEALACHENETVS
Description: HPLC-based in vitro sirtuin inhibition assay, SIRT5-catalyzed deacylation (desuccinylation). The class given is biochemical. To be noted: GST-SIRT5 370 nM, 0.8 mM β-NAD+, 0.88 mM succinyl-lysine H3 peptide substrate, 37 °C, 5 min; estimated from Dixon plots. The source says:
(§1) The following materials were purchased from commercial vendors for the sirtuin inhibition assay and the pronase digestion assay, and were used as received without further treatment. Sigma-Aldrich China: the active human recombinant His6-SIRT1, Trizma, Hepes, β-NAD^+, a 1.0 M solution of MgCl2 (molecular-biology grade), the pronase from Streptomyces griseus; Cayman Chemical (Ann Arbor, Michigan, USA): the active human recombinant GST-SIRT1, the active human recombinant His6-SIRT2, the active human recombinant His6-SIRT3, the active human recombinant GST-SIRT5, the active human recombinant His6-SIRT6; TCI Shanghai: D,L-dithiothreitol (DTT); Alfa Aesar China: NaCl, KCl.
(§2) The peptide substrates prepared and used in the sirtuin inhibition assay were: the SIRT1/2/3 substrate H2N-HK-[N^ε-acetyl-lysine]-LM-COOH corresponding to amino acids 380–384 of the human p53 protein acetylated at K^382; the SIRT5 substrate CH3CONH-AR-[N^ε-succinyl-lysine]-ST-CONH2 corresponding to amino acids 7–11 of the human histone H3 protein succinylated at K^9; the SIRT6 substrate H2N-EALPK-[N^ε-myristoyl-lysine]-TGGPQ-CONH2 corresponding to amino acids 15–25 of the human tumor necrosis factor α (TNFα) myristoylated at K^20.
(§3) The HPLC-based sirtuin inhibition assay that our laboratory has been using over past several years was employed in the current study and was performed as described previously. […]

In test [2] the target is T2, human recombinant His6-SIRT2 (Homo sapiens, UniProt Q8IXJ6).
T2 construct: purchased Cayman Chemical (Ann Arbor, Michigan, USA)
T2 sequence (Q8IXJ6 1-389): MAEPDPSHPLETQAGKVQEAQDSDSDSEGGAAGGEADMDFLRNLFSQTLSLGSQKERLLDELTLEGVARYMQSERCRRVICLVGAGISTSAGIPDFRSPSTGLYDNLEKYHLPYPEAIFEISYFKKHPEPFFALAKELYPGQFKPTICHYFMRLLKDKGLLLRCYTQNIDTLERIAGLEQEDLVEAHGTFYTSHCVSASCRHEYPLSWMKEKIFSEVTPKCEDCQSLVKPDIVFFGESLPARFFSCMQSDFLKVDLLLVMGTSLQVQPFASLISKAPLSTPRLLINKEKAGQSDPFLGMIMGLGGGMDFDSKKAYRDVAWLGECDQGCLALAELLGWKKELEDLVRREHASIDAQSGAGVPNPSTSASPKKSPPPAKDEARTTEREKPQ
Description: HPLC-based in vitro sirtuin inhibition assay, SIRT2-catalyzed deacetylation. The class given is biochemical. To be noted: His6-SIRT2 309 nM, 0.5 mM β-NAD+, 0.39 mM acetyl-lysine p53 peptide substrate, 37 °C, 12 min; Dixon plots.
Source text: as §1, §2, §3

Test [3] concerns the target T3, human recombinant His6-SIRT1 or GST-SIRT1 (Homo sapiens, UniProt Q96EB6).
T3 construct: His6 or GST (one of the two); purchased Sigma-Aldrich China (His6-SIRT1) or Cayman Chemical (GST-SIRT1)
T3 sequence (Q96EB6 1-747): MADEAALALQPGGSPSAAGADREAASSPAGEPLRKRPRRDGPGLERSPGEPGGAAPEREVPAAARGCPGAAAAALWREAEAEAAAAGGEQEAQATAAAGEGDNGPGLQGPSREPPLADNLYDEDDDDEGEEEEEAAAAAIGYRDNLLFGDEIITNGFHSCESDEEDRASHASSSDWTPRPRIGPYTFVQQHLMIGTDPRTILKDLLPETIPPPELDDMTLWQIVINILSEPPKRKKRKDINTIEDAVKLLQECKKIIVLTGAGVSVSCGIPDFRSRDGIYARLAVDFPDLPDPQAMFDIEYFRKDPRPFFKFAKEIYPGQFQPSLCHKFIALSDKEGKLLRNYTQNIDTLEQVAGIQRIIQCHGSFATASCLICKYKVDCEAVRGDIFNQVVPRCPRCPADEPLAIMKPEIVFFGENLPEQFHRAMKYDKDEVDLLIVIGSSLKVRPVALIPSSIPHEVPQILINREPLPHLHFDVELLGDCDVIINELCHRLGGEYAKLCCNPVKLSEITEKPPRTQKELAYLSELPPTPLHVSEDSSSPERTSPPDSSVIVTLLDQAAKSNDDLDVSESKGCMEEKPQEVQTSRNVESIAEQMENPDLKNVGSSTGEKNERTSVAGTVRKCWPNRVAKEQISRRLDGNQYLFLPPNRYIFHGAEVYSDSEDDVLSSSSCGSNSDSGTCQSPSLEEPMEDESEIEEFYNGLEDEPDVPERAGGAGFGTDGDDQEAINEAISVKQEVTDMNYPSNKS
The experiment in a line: HPLC-based in vitro sirtuin inhibition assay, SIRT1. The class given is biochemical. To be noted: SIRT1 320 nM, 0.5 mM β-NAD+, 0.3 mM acetyl-lysine p53 peptide substrate, 37 °C, 10 min; Dixon plots.
Source text: as §1, §2, §3

The target in test [4] is T4, human recombinant His6-SIRT3 (Homo sapiens, UniProt Q9NTG7).
T4 construct: purchased Cayman Chemical (Ann Arbor, Michigan, USA)
T4 sequence (Q9NTG7 1-399): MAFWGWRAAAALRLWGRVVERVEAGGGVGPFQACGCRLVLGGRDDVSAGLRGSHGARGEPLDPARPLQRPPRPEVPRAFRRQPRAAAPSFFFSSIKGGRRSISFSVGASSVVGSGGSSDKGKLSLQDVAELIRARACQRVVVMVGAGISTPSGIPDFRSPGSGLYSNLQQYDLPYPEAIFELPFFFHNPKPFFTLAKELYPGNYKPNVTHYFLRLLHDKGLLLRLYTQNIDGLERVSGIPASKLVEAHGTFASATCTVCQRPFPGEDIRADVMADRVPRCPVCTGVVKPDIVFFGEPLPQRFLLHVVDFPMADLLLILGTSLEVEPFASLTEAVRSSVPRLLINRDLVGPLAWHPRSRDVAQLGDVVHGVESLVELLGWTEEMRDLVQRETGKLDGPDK
The experiment in a line: HPLC-based in vitro sirtuin inhibition assay, SIRT3. The class given is biochemical. To be noted: His6-SIRT3 320 nM, 3.5 mM β-NAD+, 0.105 mM acetyl-lysine p53 peptide substrate, 37 °C, 10 min; Dixon plots.
Source text: as §1, §2, §3

For test [5], the target named is T5, human recombinant His6-SIRT6 (Homo sapiens, UniProt Q8N6T7).
T5 construct: purchased Cayman Chemical (Ann Arbor, Michigan, USA)
T5 sequence (Q8N6T7 whole entry): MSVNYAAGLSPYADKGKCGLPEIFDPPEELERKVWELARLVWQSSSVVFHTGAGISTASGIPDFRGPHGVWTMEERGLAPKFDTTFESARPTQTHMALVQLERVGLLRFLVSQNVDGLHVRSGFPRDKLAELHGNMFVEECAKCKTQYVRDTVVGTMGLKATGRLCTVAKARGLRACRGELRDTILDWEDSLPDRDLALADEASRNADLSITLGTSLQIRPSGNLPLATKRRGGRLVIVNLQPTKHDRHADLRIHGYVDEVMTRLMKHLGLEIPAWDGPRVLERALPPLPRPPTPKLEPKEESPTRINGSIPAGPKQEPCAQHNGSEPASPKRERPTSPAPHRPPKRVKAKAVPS
Description: HPLC-based in vitro sirtuin inhibition assay, SIRT6 (demyristoylation). The conditions noted are these: His6-SIRT6 313 nM, 0.2 mM β-NAD+, 0.02 mM myristoyl-lysine TNFα peptide substrate, 37 °C, 12 min; Dixon plots. The format is biochemical.
Source text: as §1, §2, §3

As to `C=CCN1C(=O)/C(=C/c2ccc(-c3cccc(Cl)c3Cl)o2)C(=O)NC1=S` [Compound 3], the IC50 is 2.3 µM in the test on SIRT5, 5.3 µM with SIRT1, 9.7 µM in the test with SIRT2 and greater than 50 µM in the test with SIRT3.
Consider `CC(=O)N[C@H]1CCCCNC(=O)CNC(=O)CCCCCCC(=O)NCC(=O)NCCCC[C@@H](C(=O)N[C@H](C(N)=O)[C@@H](C)O)NC(=O)[C@H](CCCCNC(=S)NCCC(=O)O)NC(=O)[C@H](CCCNC(=N)N)NC1=O` [Compound 4] (Ac-KR[X1]KT-NH2; linker 1-4 via Suberoyl(Gly)2), for which the IC50 in test [1] was ~6 µM and 6 µM; in test [2], ~9.2 µM and 9.2 µM.
In the case of `CC(=O)N[C@H]1CCCCNC(=O)CCCCCCC(=O)NCCCC[C@@H](C(=O)N[C@H](C(N)=O)[C@@H](C)O)NC(=O)[C@H](CCCCNC(=S)NCCC(=O)O)NC(=O)[C@H](CCCNC(=N)N)NC1=O` [Compound 5] (Ac-KR[X1]KT-NH2; linker 1-4 via Suberoyl), the concentration for half-maximal inhibition (IC50) in test [1] was ~7.5 µM and 7.5 µM; in [2], greater than 1000 µM; in [4], greater than 200 µM; in test [5] it was greater than 200 µM. The “IC50 SIRT1” value in test [3] was greater than 1000 µM.
With `CC(=O)N[C@@H](C)C(=O)N[C@@H](CCCNC(=N)N)C(=O)N[C@@H](CCCCNC(=S)NCCC(=O)O)C(=O)N[C@@H](CO)C(=O)N[C@H](C(N)=O)[C@@H](C)O` [Compound 6] (Ac-AR[X1]ST-NH2), the IC50 is 7.6 ± 1.5 µM in [1], 96.4 ± 18.5 µM in [2], greater than 1000 µM in test [4] and greater than 1000 µM in test [5]. Besides, the “IC50 SIRT1” value in test [3] is greater than 1000 µM.
In the case of “CH3CONH-AR-(N^ε-thiosuccinyl-lysine)-ST-CONH2”, the half-maximal inhibitory concentration (IC50) in the test with SIRT5 was roughly 40 µM.
